Laboratory results from patent EP0326134A1, “4-Amino-2,3-disubstituted-6,7-dihydro-5H-1-pyridine derivatives, process for their preparation and medicaments containing them” (NAUCHNO-ISSLEDOVATELSKY INSTITUT TEKHNOLOGII I BEZOPASNOSTI …, priority 1988, dated 1989).
pKi: −log10 of the molar value.

Tests used:
[1] = tested on: Wirkung von Hexenal; assay: Influence on the effect of Hexenal; format: in vivo, Mäusen; conditions: mice
[2] = tested on: Orientierungsaktivität; assay: Influence on orientation activity; format: in vivo, Mäusen; conditions: mice
Description: Von Interesse ist der Einfluß der erfindungsgemäßen Verbindungen auf das ZNS und das Verhalten der Tiere. Alle Verbindungen zeigen eine Kombination von stimulierenden und sedativen Eigenschaften und bei höheren Dosen auch eine m-cholinomimetische Wirkung, wobei Tremor, Speichelfluß und Diarrhoe ausgelöst werden.

[3] = tested on: Zahl der Krämpfe; assay: Writhing test (intraperitoneal acetic acid); format: in vivo, Mäusen; conditions: male mice
Description: Die analgetische Wirkung der erfindungsgemäßen Verbindungen wurde an männlichen Mäusen anhand des "Krampf"-Tests (Writhing-Tests) unter intraperitonealer Injizierung von Essigsäure und des Hot-plate-Tests untersucht. Im ersten Falle wurde die analgetische Wirkung der Verbindungen anhand der prozentualen Verringerung der Zahl der Krämpfe ermittelt. Beim zweiten Test wurde die Schwelle der Schmerzempfindlichkeit (Ablecken der Pfoten) bestimmt. Die stärkste analgetische Wirkung der erfindungsgemäßen Verbindungen zeigte sich beim "Krampf"-Test. Dabei übertrafen die Salze der bicyclischen Basen Amyridin, aber nicht alle erfindungsgemäßen Verbindungen waren schwächer als Morphin (s. Tabelle 4).

[4] = target: T1, Acetylcholinesterase menschlicher Erythrozyten (Homo sapiens, UniProt P22303); assay: Acetylcholinesterase inhibition, spectrophotometric; format: biochemical; conditions: Acetylcholinesteraseinhibierung bei menschlichen Erythrozyten IK, (Mol), human erythrocyte enzyme
T1 construct: Acetylcholin-esteraseinhi-bierung bei menschlichen Erythrozyten; from tissue; host or cells: human erythrocytes
Description: Untersucht wurden die Wirkmechanismen der erfindungsgemäßen Verbindungen: • 1. Die Wirkung auf Acetylcholinesterase menschlicher Erythrozyten auf spektrofotometrischem Wege. • 2.

[5] = tested on: Calciumchlorid-Arrhythmie-Modells; assay: Calcium chloride arrhythmia model (250 mg/kg): ventricular fibrillation, survival; format: in vivo, Ratten; conditions: rats, calcium chloride 250 mg/kg
Description: (§1) Die antiarrhythmische Wirkung der erfindungsgemäßen Verbindungen wurde in zwei Versuchsserien untersucht, und zwar an isolierten Präparaten des rechten Vorhofs von Kaninchen und mit Hilfe des Calciumchlorid-Arrhythmie-Modells an Ratten. In den Versuchen an den isolierten Präparaten des rechten Vorhofs wurden mit Hilfe von Mikroelektroden die Dauer des AP sowie der Refraktärzeit (R) und die maximale Hemmung (e) und der Parameter (e/R) untersucht, durch den die Anfälligkeit des Myokards gegenüber der Entstehung von Arrhythmien gekennzeichnet wird. In den Versuchen an Ratten wurden diesen Calciumchlorid in einer Dosierung von 250 mg/kg injiziert. Registriert wurden das Vorliegen von Kammerflimmern und die Lebensdauer der Tiere. Sämtliche erfindungsgemäßen Verbindungen üben eine mäßige antiarrhythmische Wirkung aus. Sie steigern die Refraktärzeit des Muskels und des AP um 35 bis 145 % und verringern gleichzeitig die Anfälligkeit des Myokards, ausgedrückt durch den Parameter e/R um 10 bis 80 % (s. Tabelle 4). In bezug auf diese Wirkung waren die Salze der bicyclischen Basen wirksamer als Amyridin. Bezüglich des Vermögens, die Tiere vor Kammerflimmern und vor dem Tod nach Verabreichung von 250 mg/kg Calciumchlorid zu schützen, waren diese Verbindungen ebenfalls am stärksten wirksam. Bei Verwendung des Calciumchlorid-Arrhythmie-Modells waren viele erfindungsgemäßen Verbindungen stärker wirksam als das klassische Antiarrhythmikum Chinidin (s. M.D. Ma s kovskij, Lekarstvennye sredstva, Bd. 1, S. 401, Moskau, Medicina, 1984).

[6] = tested on: isolierten Präparaten des rechten Vorhofs von Kaninchen; assay: Antiarrhythmic effect on isolated right atrium preparations (microelectrodes: AP duration, refractory period R, e/R); conditions: isolated right atrium of rabbit, microelectrodes
Description: as §1

[7] = Side effects and CNS/behaviour: tremor (TD50), sedative and m-cholinomimetic effects; format: in vivo; conditions: for Verhältnis TD50 zu ED50: ED50 = dose blocking the effect of Skopolamin in 50 % of the animals (passive avoidance, mice); for TD50 (Tremor): toxic dose causing tremor in 50 % of the animals
Description: Von Interesse ist der Einfluß der erfindungsgemäßen Verbindungen auf das ZNS und das Verhalten der Tiere.

[8] = tested on: Nerven-Muskel-Präparat von Mäusen (n.peroneus-m.extensor digitorum longus); assay: Neuromuscular transmission in isolated nerve-muscle preparation (EPP, minEPP); conditions: for Stimulierung der Nerven-Muskelübertragung, in % der Amplitude: EPP: EPP = Endplattenpotential
Description: Der Einfluß der Stoffe auf die Nerven-Muskei-Übertragung wurde am isolierten Nerven-Muskel-Präparat von Mäusen (n.peroneus-m.extensor digitorum longus) (s. Bhattacharyya B. et al. "Neuromuscular blocking action of two hemicholinium-3 analogs" Europ. J. Pharmac. 146, 155-165 /1988/) untersucht, das von Lilly-Lösung perfundiert wurde, durch die man ein Gemisch von 02 und C02 leitete. […] Das Endplattenpotential (EPP) und das Endplattenminiaturpotential (minEPP) wurden mit Hilfe eines Magnetografen aufgezeichnet und danach mit dem Computer ausgewertet. Ermittelt wurden die Frequenz (f), die Amplitude (A) und die Dauer (t) der minEPP und der EPP (s. Tabelle 2).

[9] = tested on: durch Skopolamin hervorgerufene Amnesie; assay: Dark avoidance assay (passive avoidance), scopolamine-induced amnesia; format: in vivo, Mäusen; conditions: mice, compound s.c. 5 min before learning, Skopolamin i.p. 30 min before
Description: Die Mäuse wurden dabei in den hellen Abschnitt der Kammer gegeben, wonach die Latenzzeit für den Übertritt in die dunkle Kammer, in der die Tiere einem Stromschlag von 0,5 mA ausgesetzt waren, registriert wurde. Danach erhöhte sich die Latenzzeit für den Übertritt in den dunklen Abschnitt und verringerte sich die Aufenthaltsdauer. 30 Minuten vor dem Versuch wurden den Mäusen i.p. […] Gedächtnisstörungen hervorrufendes Skopolamin als Cholinblocker injiziert. Die erfindungsgemäßen Verbindungen wurden s.c. 5 Minuten vor dem Lernvorgang injiziert. Das Skopolamin verkürzt die Latenzzeit für den Übertritt in die dunkle Kammer, die erfindungsgemäßen Verbindungen stellen jedoch die Latenzzeitwerte wie bei der Kontrollgruppe wieder her oder bedingen ein geringfügiges Überschreiten dieser Werte (siehe Tabelle 2). Gleichzeitig wird die Aufenthaltsdauer der Tiere im dunklen Abschnitt der Kammer auf 36 bis 45 Hundertstel des Ausgangswerts verringert.

[10] = Acute toxicity, single intraperitoneal injection, probit analysis (LD50); format: in vivo, Mäusen; conditions: mice, i.p.
Description: Ihre akute Toxizität wurde an Mäusen (einmalige intraperitoneale Injektion) nach der Methode der Probit-Analyse nach Zichtfield, Wilcoxon, t949 untersucht. In Tabelle 2 sind die Parameter der akuten Toxizität (LDso) angegeben, die eine mäßige Toxizität der erfindungsgemäßen Verbindungen belegen.

[11] = tested on: Samenleiter der Ratte; assay: Contractile activity of smooth muscle: rat vas deferens; conditions: Rattus norvegicus, read-out: Adrenalin 1.10^-6: Amplitude, % bezogen auf d.Kontrolle, Samenleiter der Ratte; Konzentration 1.10^-4 Mol; n = 9
Description: (§2) In Versuchen an glattmpskulären Organen (Uterus, Samenleiter der Ratte und Krummdarm des Meerschweinchens) wurden die Wirkung der erfindungsgemäßen Verbindungen auf die kontraktile Aktivität der glatten Muskeln und ihre Reaktionen auf den Einfluß von Acetylcholin, Serotonin, Adrenalin und KCI als Agonisten untersucht. Mit Hilfe eines Schreibers wurden die Amplitude und die Dauer der Kontraktion der glatten Muskeln unter Verwendung eines Geräts vom Typ Mechanstron-untersucht.

[12] = tested on: Uterus der Ratte; assay: Contractile activity of smooth muscle: rat uterus; conditions: Rattus norvegicus, read-out: Serotonin 1.10^-6 (Mol): Amplitude, % bezogen auf die Kontrolle, Uterus der Ratte; Konzentration 1.10^-4 Mol; n = 9
Description: as §2

T1 sequence (P22303 other isoform, or with tags, fused parts or gaps): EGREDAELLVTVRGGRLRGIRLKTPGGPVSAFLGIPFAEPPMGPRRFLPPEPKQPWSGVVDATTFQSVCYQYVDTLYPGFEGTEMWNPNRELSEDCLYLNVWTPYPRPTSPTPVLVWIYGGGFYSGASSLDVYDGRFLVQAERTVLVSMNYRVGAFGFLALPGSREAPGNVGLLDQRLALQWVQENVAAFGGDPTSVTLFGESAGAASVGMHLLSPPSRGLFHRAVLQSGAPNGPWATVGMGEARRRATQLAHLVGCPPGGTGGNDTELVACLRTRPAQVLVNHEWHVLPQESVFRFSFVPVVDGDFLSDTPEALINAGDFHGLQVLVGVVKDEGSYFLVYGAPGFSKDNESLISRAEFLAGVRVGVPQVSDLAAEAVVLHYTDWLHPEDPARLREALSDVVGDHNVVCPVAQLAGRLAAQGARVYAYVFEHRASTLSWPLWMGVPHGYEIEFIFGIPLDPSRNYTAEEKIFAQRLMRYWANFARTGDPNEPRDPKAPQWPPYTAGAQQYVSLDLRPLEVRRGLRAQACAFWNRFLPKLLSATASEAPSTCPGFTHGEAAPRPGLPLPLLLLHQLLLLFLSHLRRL

Cc1nc2c(c(N)c1C)CCC2 [Verbindung 9]
Änderung der Dauer der Seitenlage, in %: Hexenal 60 mg/kg [1]: +30% | Änderung der Orientierungsaktivität, in % [2]: -20% | Analgetische Wirkung: Abnahme d. Zahl der "Krämpfe" bei Mäusen, in % [3]: 70% | pKi [4]: 6.60 | Antiarrhythmische Wirkung: Verlängerung d. Lebensdauer von Ratten an Hand des CaCl2-Arrhythmie-Modells, in % [5]: 140% | Antiarrhythmische Wirkung: Verlängerung d. Refraktärzeit (R), in % [6]: 110% | Verhältnis TD50 zu ED50 [7]: 7 | TD50 (Tremor) [7]: 7 mg/kg | Stimulierung der Nerven-Muskelübertragung, in % der Amplitude: EPP [8]: 40% | Stimulierung der Nerven-Muskelübertragung, in % der Amplitude: minEPP [8]: 80% | Einfluß auf das Gedächtnis: Zahl der Tiere in %, bei denen die Skopolaminwirkung aufgehoben wurde [9]: 70% | LD50 [10]: 15 mg/kg

Cc1nc2c(c(N)c1C)CCC2 [Verbindung 10]
Änderung der Dauer der Seitenlage, in %: Hexenal 60 mg/kg [1]: 0% | Änderung der Orientierungsaktivität, in % [2]: 0% | Analgetische Wirkung: Abnahme d. Zahl der "Krämpfe" bei Mäusen, in % [3]: 60% | pKi [4]: 6.91 | Antiarrhythmische Wirkung: Verlängerung d. Lebensdauer von Ratten an Hand des CaCl2-Arrhythmie-Modells, in % [5]: 180% | activity at 100 µM [11]: 160% | Antiarrhythmische Wirkung: Verlängerung d. Refraktärzeit (R), in % [6]: 120% | Verhältnis TD50 zu ED50 [7]: 7,5 | TD50 (Tremor) [7]: 6 mg/kg | Stimulierung der Nerven-Muskelübertragung, in % der Amplitude: EPP [8]: 38% | Stimulierung der Nerven-Muskelübertragung, in % der Amplitude: minEPP [8]: 79% | activity at 100 µM [12]: 160% | Einfluß auf das Gedächtnis: Zahl der Tiere in %, bei denen die Skopolaminwirkung aufgehoben wurde [9]: 80% | LD50 [10]: 15 mg/kg

Cc1nc2c(c(N)c1C)CCC2 [Verbindung 12, 4-Amino-2,3-dimethyl-6,7-dihydro-5H-1-pyrindinfumarat]
Änderung der Dauer der Seitenlage, in %: Hexenal 60 mg/kg [1]: +30% | Änderung der Orientierungsaktivität, in % [2]: -15% | Analgetische Wirkung: Abnahme d. Zahl der "Krämpfe" bei Mäusen, in % [3]: 90% | pKi [4]: 6.28 | Antiarrhythmische Wirkung: Verlängerung d. Lebensdauer von Ratten an Hand des CaCl2-Arrhythmie-Modells, in % [5]: 130% | Antiarrhythmische Wirkung: Verlängerung d. Refraktärzeit (R), in % [6]: 110% | Verhältnis TD50 zu ED50 [7]: 8 | TD50 (Tremor) [7]: 7 mg/kg | Stimulierung der Nerven-Muskelübertragung, in % der Amplitude: EPP [8]: 32% | Stimulierung der Nerven-Muskelübertragung, in % der Amplitude: minEPP [8]: 70% | Einfluß auf das Gedächtnis: Zahl der Tiere in %, bei denen die Skopolaminwirkung aufgehoben wurde [9]: 50% | LD50 [10]: 15 mg/kg

Cc1nc2c(c(N)c1C)CCC2 [Verbindung 13]
Änderung der Dauer der Seitenlage, in %: Hexenal 60 mg/kg [1]: +25% | Änderung der Orientierungsaktivität, in % [2]: -10% | Analgetische Wirkung: Abnahme d. Zahl der "Krämpfe" bei Mäusen, in % [3]: 60% | pKi [4]: 6.35 | Antiarrhythmische Wirkung: Verlängerung d. Lebensdauer von Ratten an Hand des CaCl2-Arrhythmie-Modells, in % [5]: 100% | Antiarrhythmische Wirkung: Verlängerung d. Refraktärzeit (R), in % [6]: 120% | Verhältnis TD50 zu ED50 [7]: 8,5 | TD50 (Tremor) [7]: 8 mg/kg | Stimulierung der Nerven-Muskelübertragung, in % der Amplitude: EPP [8]: 35% | Stimulierung der Nerven-Muskelübertragung, in % der Amplitude: minEPP [8]: 72% | Einfluß auf das Gedächtnis: Zahl der Tiere in %, bei denen die Skopolaminwirkung aufgehoben wurde [9]: 65% | LD50 [10]: 18 mg/kg
